Assay results: patent US10093678B2, “Azaspiro derivatives as TRPM8 antagonists” (RaQualia Pharma Inc., priority 2014, dated 2018)

Biological target: T1, human TRPM8 (Homo sapiens, UniProt Q7Z2W7)
T1 construct: expressed in transfected cells; host or cells: HEK293
Experiment: Menthol-induced Ca2+ influx in HEK293 cells stably expressing human TRPM8
Assay type: cell-based
Conditions: 30 microM menthol-induced Ca2+ influx, read-out: IC50 against TRPM8
Method: Measurement of the Menthol-Induced Ca^2+ Influx in HEK293 Cells Stably Expressing Human TRPM8
A cell-based Ca^2+ influx assay using HEK293 cells stably expressing human TRPM8 is used to identify the activity of compounds.
HEK293 cells stably expressing human TRPM8 are grown in T175 flasks at 37° C. in a 5% CO2 humidified incubator to about 80% confluence. Media composition consists of Dulbecco's Modified Eagle Medium (high glucose), 10% fetal calf serum (FCS), 100 units/mLPenicillin, 100 microg/mL Streptomycin and 600 microg/mL Geneticine. At 24 hours prior to assay, cells are seeded in poly-D-lysine coated 384-well plates (BD FALCON) at a density of 30,000 cells per well in culture medium and grown overnight in 5% CO2 at 37° C. On the assay day, growth media is removed and cells are loaded with 0.5 microM Fluo4-AM (Molecular Probes) and 0.005% Pluronic F-127 dissolved in assay buffer (Hank's balanced salt solution (HBSS), 19.4 mM HEPES pH7.4, 2.5 mM Probenecid) for 1 hour at room temperature. After washing with assay buffer, the cells are preincubated with various concentrations of the compounds for 5 min. The changes in intracellular calcium concentration by addition of 30 microM menthol are monitored by the cell imaging technology by Hamamatsu Photonics Functional Drug Screening System (FDSS).
The IC50 values for compounds of the present invention are determined from 11-point dose-response studies. Curves are generated using the average of duplicate wells for each data point. Finally, the IC50 values are calculated with the best-fit dose curve determined by XLfit (ID Business Solutions Ltd.).

T1 sequence (Q7Z2W7 whole entry): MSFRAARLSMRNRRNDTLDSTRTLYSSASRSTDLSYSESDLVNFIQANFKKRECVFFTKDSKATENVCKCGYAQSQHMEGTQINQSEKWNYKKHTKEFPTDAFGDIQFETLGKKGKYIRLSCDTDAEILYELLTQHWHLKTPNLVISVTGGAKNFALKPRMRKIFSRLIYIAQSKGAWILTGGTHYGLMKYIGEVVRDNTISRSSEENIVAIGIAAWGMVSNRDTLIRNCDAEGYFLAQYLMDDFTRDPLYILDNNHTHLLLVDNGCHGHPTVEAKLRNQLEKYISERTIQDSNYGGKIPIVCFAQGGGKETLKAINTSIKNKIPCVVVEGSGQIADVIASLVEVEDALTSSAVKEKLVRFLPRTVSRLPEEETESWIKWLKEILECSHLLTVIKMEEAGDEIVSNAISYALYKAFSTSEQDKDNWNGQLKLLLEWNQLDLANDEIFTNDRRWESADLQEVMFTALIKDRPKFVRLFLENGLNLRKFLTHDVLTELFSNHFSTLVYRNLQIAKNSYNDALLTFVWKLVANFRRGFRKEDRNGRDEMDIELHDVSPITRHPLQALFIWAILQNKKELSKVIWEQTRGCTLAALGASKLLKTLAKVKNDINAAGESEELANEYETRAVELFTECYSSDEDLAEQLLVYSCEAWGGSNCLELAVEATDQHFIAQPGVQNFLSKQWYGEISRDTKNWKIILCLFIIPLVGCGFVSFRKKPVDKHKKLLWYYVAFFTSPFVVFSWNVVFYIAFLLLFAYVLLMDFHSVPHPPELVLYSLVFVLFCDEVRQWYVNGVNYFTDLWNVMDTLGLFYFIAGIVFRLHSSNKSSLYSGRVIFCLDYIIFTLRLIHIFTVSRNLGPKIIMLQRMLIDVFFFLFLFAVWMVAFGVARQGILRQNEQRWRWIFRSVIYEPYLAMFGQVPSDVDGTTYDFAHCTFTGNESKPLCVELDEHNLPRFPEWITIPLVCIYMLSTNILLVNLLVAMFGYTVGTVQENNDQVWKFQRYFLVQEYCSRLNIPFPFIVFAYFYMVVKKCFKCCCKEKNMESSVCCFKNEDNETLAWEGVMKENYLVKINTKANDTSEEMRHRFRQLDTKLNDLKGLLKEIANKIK

| Structure (SMILES) | IC50 |
| --- | --- |
| O=C(CN1C(=O)NC2(CCC(F)(F)CC2)C1=O)c1ccc(-c2ncn3ccccc23)cc1 [Example 6-64] | < 0.5 µM |
| Cn1c(C(=O)CN2C(=O)NC3(CCC(F)(F)CC3)C2=O)ccc1-c1ccccc1C#N [Example 16-29] | < 0.5 µM |
| Cc1c(C(=O)CN2C(=O)NC3(CCC(F)(F)CC3)C2=O)cn(C)c1-c1cccnc1 [Example 16-26] | < 0.5 µM |
| O=C(CN1CC2(CCC(F)(F)CC2)OC1=O)c1ccc(-c2cccc3cccnc23)cc1 [Example 13-57] | < 0.5 µM |
| Cc1ccccc1-c1ccc(C(=O)CN2C(=O)NC3(CCC(F)(F)CC3)C2=O)nn1 [Example 12-7] | < 0.5 µM |
| O=C(CN1C(=O)NC2(CCC(F)(F)CC2)C1=O)c1ccc(-c2ccc3ccncc3c2)cc1 [Example 6-96] | < 0.5 µM |
| N#Cc1cncnc1-c1ccc(C(=O)CN2C(=O)NC3(CCC(F)(F)CC3)C2=O)cc1 [Example 6-93] | < 0.5 µM |
| Cn1c(C(=O)CN2C(=O)NC3(CCC(F)(F)CC3)C2=O)ccc1-c1ccccc1CO [Example 16-30] | < 0.5 µM |
| O=C(CN1C(=O)NC2(CCC(F)(F)CC2)C1=O)c1ccc(-c2ccnc3c2OCCO3)cc1 [Example 13-50] | < 0.5 µM |
| CC(=O)c1ccccc1-c1ccc(C(=O)CN2C(=O)NC3(CCC(F)(F)CC3)C2=O)cc1 [Example 6-102] | < 0.5 µM |
| N#Cc1nccnc1-c1ccc(C(=O)CN2CC3(CCC(F)(F)CC3)OC2=O)cc1 [Example 7-15] | < 0.5 µM |
| Cc1cc(C(=O)CN2C(=O)NC3(CCC(F)(F)CC3)C2=O)ccc1-c1ccccc1C#N [Example 13-9] | < 0.1 µM |
| Cn1c(-c2cccnc2)cnc1C(=O)CN1C(=O)NC2(CCC(F)(F)CC2)C1=O [Example 17-15] | < 0.5 µM |
| N#Cc1nccnc1Oc1ccc(C(=O)CN2C(=O)NC3(CCC(F)(F)CC3)C2=O)cc1 [Example 21-8] | < 0.1 µM |
| O=C(CN1C(=O)NC2(CCC(F)(F)CC2)C1=O)c1ccc(-n2ncc3ccccc32)cc1 [Example 5-6] | < 0.1 µM |
| Cn1nccc1-c1ccc(C(=O)CN2C(=O)NC3(CCCCC3)C2=O)cc1 [Example 7-6] | < 0.1 µM |

| Structure (SMILES) | IC50 |
| --- | --- |
| Cc1sc(C(=O)CN2C(=O)NC3(CCC(F)(F)CC3)C2=O)c(C)c1-c1cccc(C(N)=O)c1 [Example 15-7] | < 0.1 µM |
| Cc1cc(C(=O)CN2C(=O)NC3(CCC(F)(F)CC3)C2=O)sc1-c1cncc(F)c1 [Example 14-17] | < 0.1 µM |
| Cc1ccccc1-c1sc(C(=O)CN2C(=O)NC3(CCC(F)(F)CC3)C2=O)cc1C [Example 14-11] | < 0.1 µM |
| Cc1cccc(-c2cnc(C(=O)CN3C(=O)NC4(CCC(F)(F)CC4)C3=O)n2C)c1 [Example 17-14] | < 0.5 µM |
| Cc1cc(C(=O)CN2C(=O)NC3(CCC(F)(F)CC3)C2=O)ccc1-c1cc(F)cc(F)c1 [Example 13-16] | < 0.1 µM |
| Cc1cc(C(=O)CN2C(=O)NC3(CCC(F)(F)CC3)C2=O)n(C)c1-c1cccc(F)c1 [Example 16-5] | < 0.1 µM |
| Cc1cc(C(=O)CN2C(=O)NC3(CCC(F)(F)CC3)C2=O)sc1-c1cccc2cccnc12 [Example 14-20] | < 0.5 µM |
| CS(=O)(=O)c1ccccc1-c1ccc(C(=O)CN2C(=O)NC3(CCC(F)(F)CC3)C2=O)cc1 [Example 6-53] | < 0.5 µM |
| CC(=O)NCc1ncccc1-c1ccc(C(=O)CN2C(=O)NC3(CCC(F)(F)CC3)C2=O)cc1 [Example 6-57, N-((3-(4-(2-(8,8-difluoro-2,4-dioxo-1,3-diazaspiro[4.5]decan-3-yl)acetyl)phenyl)pyridin-2-yl)methyl)acetamide] | < 0.1 µM |
| Cc1cc(-n2c(C)cc(C(=O)CN3C(=O)OC4(CCCCC4)C3=O)c2C)no1 [Example 1-3] | < 0.1 µM |
| COc1nccnc1-c1ccc(C(=O)CN2C(=O)NC3(CCC(F)(F)CC3)C2=O)cc1 [Example 6-97] | < 0.1 µM |
| O=C(CN1C(=O)NC2(CCC(F)(F)CC2)C1=O)c1ccc(N2C(=O)COc3ccccc32)cc1 [Example 19-21] | < 0.1 µM |
| COCc1ccccc1-c1ccc(C(=O)CN2C(=O)NC3(CCC(F)(F)CC3)C2=O)cc1 [Example 6-114] | < 0.1 µM |
| Cc1ncccc1-c1c(C)nc(C(=O)CN2C(=O)NC3(CCC(F)(F)CC3)C2=O)n1C [Example 17-13] | < 0.5 µM |
| O=C(CN1C(=O)NC2(CCC(F)(F)CC2)C1=O)c1ccc(-n2cnc3nccnc32)cc1 [Example 19-37] | < 0.1 µM |
| O=C(CN1C(=O)NC2(CCCCC2)C1=O)c1ccc(OCCNc2ccccc2)nc1 [Example 20-4] | < 0.5 µM |

More lines, now with the values ahead:

| IC50 | Structure (SMILES) |
| --- | --- |
| < 0.1 µM | Cc1c(C(=O)CN2C(=O)NC3(CCC(F)(F)CC3)C2=O)cn(C)c1-c1cccc(C#N)c1 [Example 16-22] |
| < 0.1 µM | O=C(CN1C(=O)NC2(CCC(F)(F)CC2)C1=O)c1ccc(-c2ccnc3[nH]ccc23)nc1 [Example 9-22] |
| < 0.1 µM | Cc1ccnnc1-c1ccc(C(=O)CN2C(=O)NC3(CCC(F)(F)CC3)C2=O)cc1 [Example 6-14] |
| < 0.1 µM | Cc1ccncc1-c1ncc(C(=O)CN2C(=O)NC3(CCC(F)(F)CC3)C2=O)cc1Cl [Example 5-25] |
| < 0.1 µM | Cc1nc(C(=O)CN2C(=O)NC3(CCC(F)(F)CC3)C2=O)sc1-c1ccccc1CO [Example 18-4] |
| < 0.1 µM | Cc1cc(C(=O)CN2C(=O)NC3(CCC(F)(F)CC3)C2=O)c(C)n1-c1noc2ccccc12 [Example 3-18] |
| < 0.1 µM | Cc1nc(C(=O)CN2C(=O)NC3(CCC(F)(F)CC3)C2=O)sc1-c1ccccc1 [Example 4-5] |
| < 0.1 µM | Cc1ccsc1-c1ccc(C(=O)CN2C(=O)NC3(CCCCC3)C2=O)cc1 [Example 7-3] |
| < 0.1 µM | Cc1c(C(=O)CN2C(=O)NC3(CCC(F)(F)CC3)C2=O)cn(C)c1-c1ccccc1C#N [Example 16-25] |
| < 0.1 µM | Cc1cc(C(=O)CN2C(=O)NC3(CCC(F)(F)CC3)C2=O)c(C)n1-c1cncc2ccccc12 [Example 3-19] |
| < 0.1 µM | Cc1c(C(=O)CN2C(=O)NC3(CCC(F)(F)CC3)C2=O)ccn1-c1ccccc1 [Example 4-6] |
| < 0.1 µM | N#Cc1cccc(Oc2ccc(C(=O)CN3C(=O)NC4(CCC(F)(F)CC4)C3=O)cc2)n1 [Example 21-5] |
| < 0.1 µM | O=C(CN1C(=O)OC2(CCC(F)(F)CC2)C1=O)c1ccc(-c2ncccn2)cc1 [Example 7-26] |
| < 0.1 µM | O=C(CN1C(=O)NC2(CCC(F)(F)CC2)C1=O)c1ccc(-n2c(C(F)(F)F)nc3cccnc32)cc1 [Example 24-6, 8,8-difluoro-3-(2-oxo-2-(4-(2-(trifluoromethyl)-3H-imidazo[4,5-b]pyridin-3-yl)phenyl)ethyl)-1,3-diazaspiro[4.5]decane-2,4-dione] |
| < 0.1 µM | O=C(CN1C(=O)NC2(CCC(F)(F)CC2)C1=O)c1ccc(-c2cccnc2CO)nc1 [Example 9-25] |
| < 0.1 µM | O=C(CN1C(=O)NC2(CCCCC2)C1=O)c1ccc(-c2ccccc2)cc1F [Example 13-20] |
| < 0.1 µM | O=C(CN1C(=O)NC2(CCC(F)(F)CC2)C1=O)c1ccc(-c2cnn3cccnc23)cc1 [Example 6-68] |

| IC50 | Structure (SMILES) |
| --- | --- |
| < 0.1 µM | Cc1ccncc1-c1c(C)cc(C(=O)CN2C(=O)NC3(CCC(F)(F)CC3)C2=O)n1C [Example 16-10] |
| < 0.1 µM | Cc1ncsc1-c1ccc(C(=O)CN2C(=O)NC3(CCC(F)(F)CC3)C2=O)cc1 [Example 6-12] |
| < 0.1 µM | Cc1nc(C(=O)CN2C(=O)NC3(CCC(F)(F)CC3)C2=O)c(C)n1-c1cccc(F)c1 [Example 2-11] |
| < 0.1 µM | O=C(CN1C(=O)NC2(CCC(F)(F)CC2)C1=O)c1ccc(-n2c(C(F)F)nc3cccnc32)cc1 [Example 24-1] |
| < 0.1 µM | O=C(CN1C(=O)NC2(CCC(F)(F)CC2)C1=O)c1ccc(-c2ccccc2O)cc1 [Example 6-19] |
| < 0.1 µM | O=C(CN1C(=O)NC2(CCC(F)(F)CC2)C1=O)c1ccc(Oc2ncccn2)cc1 [Example 5-20] |
| < 0.1 µM | O=C(CN1C(=O)NC2(CCCCC2)C1=O)c1ccc(Oc2ccccn2)cc1 [Example 5-18] |
| < 0.1 µM | O=C(CN1C(=O)NC2(CCC(F)(F)CC2)C1=O)c1ccc(-c2ncccc2F)cc1 [Example 6-27] |
| < 0.1 µM | O=C(CN1C(=O)NC2(CCC(F)(F)CC2)C1=O)c1ccc(N2CCOc3ccccc32)cc1 [Example 19-20] |
| < 0.1 µM | Cc1cccc(-n2c(C)cc(C(=O)CN3C(=O)NC4(CCCCCC4)C3=O)c2C)n1 [Example 3-14] |
| < 0.1 µM | Cc1ncccc1-c1ccc(C(=O)CN2C(=O)NC3(CCC(F)(F)CC3)C2=O)nc1 [Example 10-1] |
| < 0.1 µM | CN(c1ccccc1)c1ccc(C(=O)CN2C(=O)NC3(CCCCC3)C2=O)cn1 [Example 19-5] |
| < 0.01 µM | COc1nc2cccnc2n1-c1ccc(C(=O)CN2C(=O)NC3(CCC(F)(F)CC3)C2=O)cc1 [Example 26-1, 8,8-difluoro-3-(2-(4-(2-methoxy-3H-imidazo[4,5-b]pyridin-3-yl)phenyl)-2-oxoethyl)-1,3-diazaspiro[4.5]decane-2,4-dione] |
| < 0.01 µM | COc1ccccc1-c1ccc(C(=O)CN2C(=O)NC3(CCCCC3)C2=O)cn1 [Example 9-3] |
| < 0.01 µM | O=C(CN1C(=O)NC2(CCC(F)(F)CC2)C1=O)c1ccc(-c2ncnc3[nH]ccc23)cc1 [Example 6-8] |
| < 0.01 µM | Cc1ccncc1-c1ccc(C(=O)CN2C(=O)NC3(CCC(F)(F)CC3)C2=O)cc1 [Example 13-35] |
